Values of other authors, collected in patent US6514527B1, “Compositions comprising a mixture of bioflavonols” (Merck Patentgesellschaft, priority 1998, dated 2003).

Conditions: orally administered

SMILES | time to reach peak
O=c1c(O)c(-c2ccc(O)c(O)c2)oc2cc(O)cc(O)c12 [quercetin] | about 3 h
O=c1c(O[C@@H]2O[C@H](CO)[C@@H](O)[C@H](O)[C@H]2O)c(-c2ccc(O)c(O)c2)oc2cc(O)cc(O)c12 [isoquercetin] | about 0.70 h
